Reference: US11179385B2 (THE TRUSTEES OF THE UNIVERSITY OF PENNSYLVANIA, priority 2015, dated 2021)

Key:
[1] = system: T cell activation; cytokine induction; details: cited from earlier work
[2] = system: melanoma in Tyr::creER, BRAF^ca, Phd2^lox/lox mice; experiment: Topical resiquimod on melanoma progression in Tyr::creER, BRAFca, Phd2lox/lox mice; type: in vivo, mouse; details: topical 0.2% twice a week for 6 weeks
Excerpt: FIGS. 2A-2L. […] FIG. 2A) Treatment scheme. FIG. 2B) Large tumor in a mouse treated with vehicle (n=10). FIG. 2C) Underside of skin filled with tumor. FIGS. 2D and 2E) Histology of melanoma in a control mouse. The dermis is filled with tumor cells. […] FIG. 2G) Underside of skin cleared of tumor. FIG. 2H) Histology of skin in a treated mouse, normal appearing. FIG. 2I) Macrophages with pigment are present in the dermis in a treated mouse. Arrow points to macrophages. FIG. 2J)Tumor growth curve. FIG. 2K) In situ melanoma in control mice. Arrows point to the tumor cells in the epidermis and hair follicle. I) Normal appearing epidermis in treated mice. *indicates p<0.05. Bars in b, c, f and g indicate 6 mm. Bars in d, e, h and I, indicate 200 μm. Bars in k and l indicate 10 μm.
The Tyr:creER, BRAF^ca, phd2^lox/lox mouse melanoma model was developed in Dr. Xu's lab. Melanoma can be induced with 100% penetrance using topical 4-HT. Lymph node metastasis is frequent in these mice. […] The melanoma in control mice grew and the tumor became very big at day 180 (FIG. 2B). These mice were sacrificed. The underside of skin was occupied completely by tumor (FIG. 2C). Histologically, the dermis was filled entirely by melanoma cells (FIG. 2D and FIG. 2E). […] Histologically, dermal melanoma had regressed (FIG. 2H) and numerous macrophages with pigment were present in the dermis (FIG. 2I), indicating melanoma has regressed. None of the treated mice developed lymph node metastasis.

[3] = system: B16-F10 melanoma cells in C57BL/6J mice; experiment: Topical resiquimod gel in the B16 melanoma model; type: in vivo, mouse
Excerpt: FIGS. 5A-5E. […] FIG. 5A) Treatment scheme. […] Arrow points to the inflammatory cells. FIG. 5E) Fold changes in cytokine and chemokine mRNA expression in the tumor tissues from treated mice compared to control mice. *indicates p<0.05. Bars in d indicate 25 μm.
Tumor tissues were processed and we measured cytokine and chemokine mRNA expression in the tumor using qRT-PCR.

[4] = system: melanoma in Tyr::creER, BRAF^ca, Pten^lox/lox mice; experiment: Topical resiquimod gel on melanoma progression in Tyr::creER, BRAFca, Ptenlox/lox mice; type: in vivo, mouse
Excerpt: FIGS. 3A-3I. […] FIG. 3A) Treatment scheme. FIG. 3B) Representative image of a mouse with control treatment (n=15). […] FIG. 3D) Histology of melanoma in a control mouse. […] FIG. 3E) Histology of melanoma in a treated mouse. […] Bars indicate 6 mm in FIG. 3B and FIG. 3C, 400 μm in FIG. 3D and FIG. 3E and 50 μm in FIG. 3H and FIG. 3I.
FIGS. 4A-4I. […] FIG. 4A) Treatment scheme. […] All measurement was compared to the control. *indicates p<0.05.
Tumor and spleen tissues were processed and multicolor flow cytometry analysis was performed.

[5] = system: nevus-like pigmented tumors in Tyr::creER, BRAF^ca mice; experiment: Topical resiquimod gel on pigmented tumor progression in Tyr::creER, BRAFca mice (nevus model); type: in vivo, mouse
Experimental: FIGS. 1A-1I. […] FIG. 1A) Treatment scheme. […] FIG. 1D) Pigmented lesion in a mouse before treatment. […] FIG. 1F) Histology of tumor treated with vehicle. […] Bars in b-e indicate 6 mm. Bars in f-h indicate 200 μm.
A majority of nevi and melanomas contain BRAF mutations, particularly the BRAFV600E mutation.
Mice treated with blank topical gel were used as controls. […] Tumor diameters were measured using calipers every three days.

[6] = system: melanoma in Tyr::creER, BRAF^ca, Pten^lox/lox mice; experiment: Resiquimod in combination with anti-PD1 therapy in Tyr::creER, BRAFca, Ptenlox/lox mice; type: in vivo, mouse; details: 0.2% resiquimod twice a week for 6 weeks; anti-PD1 200 μg i.p. twice a week for 5 weeks
Excerpt: FIGS. 7A-7G. […] FIG. 7A) Treatment scheme. […] FIG. 7F) Effect of therapies on melanoma growth (n=5 each group). FIG. 7G) Effect of therapies on lymph node metastasis. *indicates p<0.05. **indicates p<0.01. Bars indicate 6 mm.

[7] = system: B16-F10 melanoma cells in CD8 depleted C57 mice; experiment: Resiquimod gel in CD8 depleted C57 mice with B16-F10 melanoma; type: in vivo, mouse
Experimental: (§1) Once these mice developed palpable tumors, resiquimod treatment was administered twice a week. […] CD8 depletion was achieved using anti-CD8 antibody. […]

[8] = system: B16-F10 melanoma cells in RAG-1-deficient mice; experiment: Resiquimod gel in RAG-1-deficient mice with B16-F10 melanoma; type: in vivo, mouse
Experimental: as §1

T cells from spleen = experiment: Cytokine release by T cells from spleen after stimulation; type: cell-based, mouse; details: resiquimod treated T cells from spleen
Experimental: as §1

[9] = Stability and solubility of resiquimod in ethanol:PBS topical formulation (HPLC); type: physicochemical; details: 50:50 ethanol:pbs topical formulation aged for 2 weeks
[10] = 0.2% resiquimod gel twice a week
[11] = qRT-PCR, compared to control mice
[12] = treated 3 weeks, flow cytometry of tumor

In the case of `CCOCc1nc2c(N)nc3ccccc3c2n1CC(C)(C)O` [resiquimod, 1-[4-amino-2-(ethoxymethyl)imidazo[4,5-c]quinolin-1-yl]-2-methylpropan-2-ol], the “induction of IFN-α, TNF-α, IL-1, IL-6, IL-8 and IL-12 compared with imiquimod” value [1] is given as “more potent inducer”, the “histology: dermal melanoma” value [2] is given as “regressed” and the “melanoma cells in the epidermis (in situ melanoma)” value [2] is given as “disappeared after treatment”. The “treated mice that developed lymph node metastasis” value [2] was “None”, the “tumor on underside of skin” value [2] was “significantly less tumors” and the melanoma growth ([2]; started 140 days after induction) was “inhibited”. The “histology: inflammatory cells in the tumor” value [3, 10] was “more inflammatory cells”, the “lifespan (survival) of treated mice” value [3, 10] was “prolonged the lifespan” and the melanoma growth [3, 10] was “significantly slowed the melanoma growth”. For the same molecule, the “CCL2 mRNA expression in the tumor” value [3, 11] was “increased”, the “INF-γ mRNA expression in the tumor” value [3, 11] was “increased” and the “TNF-α mRNA expression in the tumor” value [3, 11] was “increased”. For the same molecule, the “melanoma growth (tumor volume)” value ([4]; resiquimod gel twice a week for 6 weeks vs control vehicle) was “significantly slowed melanoma growth”, the tumor thickness ([4]; treated 3 weeks) was “significantly thinner tumors” and the “CD45+CD11B+F4/80-Ly6g high MDSCs in the tumor” value [4, 12] was “decrease”. For the same molecule, the “PD1+CD8+ T cells” value [4, 12] was “significantly increased”, the “expression of granzyme B in CD8^- T cells” value [4, 12] was “increased” and the “intratumoral CD45+ inflammatory cells” value [4, 12] was “significant increase”. The “number of GranB+CD8+ T cells” value [4, 12] was “increased”, the “number of GranB+CD8+Ki-67+ T cells” value [4, 12] was “increased” and the “mice that developed lymph node metastasis” value ([4]; treated 3 weeks, sacrificed on treatment, control: all 5 mice) was 2 of 5. The “positive lymph nodes per mouse with metastasis” value ([4]; treated 3 weeks, control 2-4 per mouse) was 1, the “histology: infiltration of melanoma through skeletal muscle” value ([4]; twice a week for 6 weeks) was “did not infiltrate through the skeletal muscle” and the “in situ melanoma in the epidermis” value ([4]; twice a week for 6 weeks) was “disappeared after treatment”. The “lifespan (survival) of treated mice” value ([4]; twice a week for 6 weeks) was “prolonged the lifespan”, the “pigmented lesion growth (tumor diameter)” value ([5]; 0.2% resiquimod topical gel twice a week for six weeks vs blank gel) was “regressed” and the “histology: pigmented tumor cells in the dermis” value ([5]; 0.2% topical gel twice a week for six weeks) was “disappeared”. For the same molecule, the “pigmented tumor cells in the epidermis” value ([5]; 0.2% topical gel twice a week for six weeks, data not shown) was “regressed completely”, the “palpable pigmented lesion after treatment” value ([5]; different experiment, topical resiquimod for 1 month) was “disappeared after treatment” and the “lymph node metastasis (number of positive lymph nodes)” value [6] was “significantly reduced”. The “melanoma growth (tumor volume)” value [6] was “significantly slowed melanoma growth”, the “effect of resiquimod on survival curves” value ([7]; CD8-depleted mice) was “abolished” and the effect on melanoma ([7]; CD8 T cell depleted mice (anti-CD8 antibody), resiquimod twice a week) was “little effect”. For the same molecule, the “effect on melanoma growth” value ([8]; RAG-1-deficient mice, resiquimod gel twice a week) was “little effect”, the “effect of resiquimod on survival curves” value ([8]; Rag-1-deficient mice) was “abolished” and the “expression of IFN-γ by T cells after stimulation” value (T cells from spleen) was “increased expression”. The “solubility in base formulation” value [9] was “soluble”.
